Source: patent US20170304286A1 (LAUNX BIOMEDICAL CO., LTD., priority 2014, published 2017)
Values joined by “and” are separate entries in the source; they are usually repeats but may differ in a detail not shown here. Equal entries are not always repeated. Where two headings read alike, the source gives them in different places.

Experiments:
[1] = tested on: gastric cancer cells (AGS); test: Animal model test of gastric cancer, tumor size; type: in vivo, mice
Experimental: In this invention, the female mice were (BALB/cAnN.Cg-Foxn1^nu/CrlNarl) purchased from National Laboratory Animal Center (Taiwan). The weight of the mice were 21±1 g. These mice were subcutaneously injected with gastric cancer cells (AGS) and then put these mice into different cage sat random. The drug test experiment was divided into three groups, include “control group”, “low dose group (100 mg/kg/day)”, and “high dose group (200 mg/kg/day)”. These mice were then injected test drug intraperitoneally once daily […]. The tumor sizes and body weight were measured twice a week. The tumor sizes were measured and calculated by formula: (L×W^2)/2. L represents the tumor longest length. W represents the tumor shortest diameter.

[2] = tested on: TSGH; test: WST-1 cell viability, bladder cancer cell line TSGH; type: cell-based; conditions: 72 h
Experimental: (§1) The cell numbers were counted and reseed as 2×10^6 in culture plate/flask. Then, the culture medium were added to a volume of 10 ml, and the cells were cultured for 2-3 days. Then, the cells were suspended for loading into 96-well plates. The number of cells was 3000 and the volume of the culture medium was 100 μl each well.
(§2) Removing the original culture medium from 96-well plate. Then add 100 μl of commercially drug at a concentration of 10 μM per well. After 72 hours, add the diluted WST-1 reagent to the well with 100 μl/well, and the diluted WST-1 reagent was acquired from the dilution of 9:1 medium and WST-1 stock reagent. Finally, the total volume of each well was 200 μl/well. Culture the 96-well plate at 37° C. for 30 to 90 minutes. Detecting and calculate the survival rate of each cancer cells with an ELISA reader at OD450 nm.

[3] = tested on: AsPC-1; test: WST-1 cell viability, pancreatic cancer cell line AsPC-1; type: cell-based; conditions: Homo sapiens
Experimental: as §1, §2

[4] = tested on: H1650 (lung adenocarcinoma); test: WST-1 cell viability, lung cancer cell line H1650; type: cell-based; conditions: Homo sapiens
Experimental: as §1, §2

[5] = tested on: C-33A (Cervical carcinoma); test: WST-1 cell viability, cervical cancer cell line C-33A; type: cell-based; conditions: Homo sapiens, 72 h
Experimental: as §1, §2

[6] = Animal model test of gastric cancer, body weight and survival of mice; type: in vivo; conditions: for weight: mice A, B, C
Experimental: In this invention, the female mice were (BALB/cAnN.Cg-Foxn1^nu/CrlNarl) purchased from National Laboratory Animal Center (Taiwan). The weight of the mice were 21±1 g. These mice were subcutaneously injected with gastric cancer cells (AGS) and then put these mice into different cage sat random. The drug test experiment was divided into three groups, include “control group”, “low dose group (100 mg/kg/day)”, and “high dose group (200 mg/kg/day)”. These mice were then injected test drug intraperitoneally once daily until the tumor size reached 100 mm^3. The tumor sizes and body weight were measured twice a week. The tumor sizes were measured and calculated by formula: (L×W^2)/2. L represents the tumor longest length. W represents the tumor shortest diameter.

[7] = tested on: HepG2 (hepatocellular carcinoma); test: WST-1 cell viability, hepatic cancer cell line HepG2; type: cell-based; conditions: Homo sapiens
Experimental: as §1, §2

[8] = tested on: prostate cancer cells; test: Summary of cell viability, prostate cancer; type: cell-based; conditions: 72 h, read-out: Inhibitory effect
Experimental: as §2

[9] = tested on: MCF7 (Mammary Gland, Adenocarcinoma); test: WST-1 cell viability, breast cancer cell line MCF7; type: cell-based; conditions: Homo sapiens
Experimental: as §1, §2

[10] = tested on: bladder cancer cells; test: Summary of cell viability, bladder cancer; type: cell-based; conditions: 72 h, read-out: Inhibitory effect
Experimental: as §2

[11] = tested on: BxPC-3; test: WST-1 cell viability, pancreatic cancer cell line BxPC-3; type: cell-based; conditions: Homo sapiens
Experimental: as §1, §2

[12] = 100 mg/kg/day i.p., Fifth measurement
[13] = 100 mg/kg/day i.p., Fifth measurement, mice A, B, C
[14] = 100 mg/kg/day i.p., First measurement
[15] = 100 mg/kg/day i.p., First measurement, mice A, B, C
[16] = 100 mg/kg/day i.p., Fourth measurement
[17] = 100 mg/kg/day i.p., Fourth measurement, mice A, B, C
[18] = 100 mg/kg/day i.p., Second measurement
[19] = 100 mg/kg/day i.p., Second measurement, mice A, B, C
[20] = 100 mg/kg/day i.p., Third measurement
[21] = 100 mg/kg/day i.p., Third measurement, mice A, B, C
[22] = 200 mg/kg/day i.p., Fifth measurement
[23] = 200 mg/kg/day i.p., Fifth measurement, mice A, B, C
[24] = 200 mg/kg/day i.p., First measurement
[25] = 200 mg/kg/day i.p., First measurement, mice A, B, C
[26] = 200 mg/kg/day i.p., Fourth measurement
[27] = 200 mg/kg/day i.p., Fourth measurement, mice A, B, C
[28] = 200 mg/kg/day i.p., Second measurement
[29] = 200 mg/kg/day i.p., Second measurement, mice A, B, C
[30] = 200 mg/kg/day i.p., Third measurement
[31] = both low dose and high dose, FIG. 2
[32] = average of 4 tests, read-out: survival rate (inhibition effect), Average

With `Fc1ccc([C@@H]2CCNC[C@H]2COc2ccc3c(c2)OCO3)cc1` [Paroxetine] the “Tumor volume growth, average” value [1, 12] was −8.333 mm3, the “volume, average” value [1, 12] was 63.333 mm3 and the longest length [1, 13] was 6 mm and 4 mm. The width [1, 13] was 6 mm and 5 mm and 4 mm, the “Tumor volume growth, average” value [1, 14] was 113.1667 mm3 and the “volume, average” value [1, 14] was 113.1667 mm3. The Tumor volume growth [1, 15] was 87.5 mm3 and 144 mm3 and 108 mm3, the longest length [1, 15] was 7 mm and 8 mm and 6 mm and the volume [1, 15] was 87.5 mm3 and 144 mm3 and 108 mm3. For the same compound, the width [1, 15] was 5 mm and 6 mm, the “Tumor volume growth, average” value [1, 16] was −18.167 mm3 and the “volume, average” value [1, 16] was 71.667 mm3. For the same compound, the longest length [1, 17] was 6 mm and 4 mm, the width [1, 17] was 6 mm and 4 mm and 5 mm and the “Tumor volume growth, average” value [1, 18] was −4.167 mm3. For the same compound, the “volume, average” value [1, 18] was 109 mm3, the longest length [1, 19] was 6 mm and 7 mm and the volume [1, 19] was 75 mm3 and 126 mm3. For the same compound, the width [1, 19] was 5 mm and 6 mm, the “Tumor volume growth, average” value [1, 20] was −19.167 mm3 and the “volume, average” value [1, 20] was 89.833 mm3. For the same compound, the longest length [1, 21] was 7 mm, the width [1, 21] was 6 mm and 4 mm and 5 mm and the “Tumor volume growth, average” value [1, 22] was 0 mm3. For the same compound, the “volume, average” value [1, 22] was 0 mm3, the Tumor volume growth [1, 23] was 0 mm3 and the longest length [1, 23] was 0 mm. The volume [1, 23] was 0 mm3, the width [1, 23] was 0 mm and the “Tumor volume growth, average” value [1, 24] was 78.5 mm3. The “volume, average” value [1, 24] was 78.5 mm3, the longest length [1, 25] was 6 mm and 8 mm and 7 mm and the width [1, 25] was 4 mm and 5 mm. For the same compound, the “Tumor volume growth, average” value [1, 26] was −13.33 mm3, the “volume, average” value [1, 26] was 0 mm3 and the longest length [1, 27] was 0 mm. The volume [1, 27] was 0 mm3, the width [1, 27] was 0 mm and the “Tumor volume growth, average” value [1, 28] was −25.8333 mm3. For the same compound, the “volume, average” value [1, 28] was 52.67 mm3, the longest length [1, 29] was 6 mm and 5 mm and 7 mm and the width [1, 29] was 4 mm and 3 mm and 5 mm. The “Tumor volume growth, average” value [1, 30] was −39.33 mm3, the “volume, average” value [1, 30] was 13.333 mm3 and the “inhibition effect on tumor cells” value [1, 31] was “significant inhibition effect”. For the same compound, the Tumor volume growth ([1]; both low dose and high dose, FIG. 3) was “effectively slow down the tumor volume growth”, the “inhibition of tumor growth, high doses compared with low” value ([1]; high doses, FIG. 3) was “better effect to inhibit tumor growth” and the viability at 10 µM [2, 32] was 38.4%. For the same compound, the viability at 10 µM ([2]; run 0510-10 min, read-out: survival rate (inhibition effect)) was 37.1%, the viability at 10 µM ([2]; run 0512-10 min, read-out: survival rate (inhibition effect)) was 37.4% and the viability at 10 µM ([2]; run 0515-10 min, read-out: survival rate (inhibition effect)) was 36.8%. For the same compound, the viability at 10 µM ([2]; run 0517-10 min, read-out: survival rate (inhibition effect)) was 42.2%, the viability at 10 µM ([3]; ASPC1, 72 h, AsPC-1, average of 4 tests, read-out: survival rate (inhibition effect), Average) was 77% and the viability at 10 µM ([3]; ASPC1, AsPC-1, 72 h, run 1-4-30 min, read-out: survival rate (inhibition effect)) was 72.5%. For the same compound, the viability at 10 µM ([3]; ASPC1, AsPC-1, 72 h, run 1-7-3-30 min, read-out: survival rate (inhibition effect)) was 78.8%, the viability at 10 µM ([3]; ASPC1, AsPC-1, 72 h, run 1-7-4-30 min, read-out: survival rate (inhibition effect)) was 87.3% and the viability at 10 µM ([3]; ASPC1, AsPC-1, 72 h, run 1-7-7-30 min, read-out: survival rate (inhibition effect)) was 69.3%. The viability at 10 µM ([4]; NCI-H1650, 72 h, H1650, average of 4 tests, read-out: survival rate (inhibition effect), Average) was 56.9%, the viability at 10 µM ([4]; NCI-H1650, H1650, 72 h, run 1-10 min, read-out: survival rate (inhibition effect)) was 66.4% and the viability at 10 µM ([4]; NCI-H1650, H1650, 72 h, run 2-20 min, read-out: survival rate (inhibition effect)) was 31.6%. It also gave a viability at 10 µM ([4]; NCI-H1650, H1650, 72 h, run 3-20 min, read-out: survival rate (inhibition effect)) of 58.2%, a viability at 10 µM ([4]; NCI-H1650, H1650, 72 h, run 4-20 min, read-out: survival rate (inhibition effect)) of 71.3% and a viability at 10 µM [5, 32] of 33.2%. The viability at 10 µM ([5]; run 0524-10 min, read-out: survival rate (inhibition effect)) was 33.2%, the viability at 10 µM ([5]; run 0526-10 min, read-out: survival rate (inhibition effect)) was 32.1% and the viability at 10 µM ([5]; run 0529-10 min, read-out: survival rate (inhibition effect)) was 31.7%. For the same compound, the viability at 10 µM ([5]; run 0531-10 min, read-out: survival rate (inhibition effect)) was 35.8%, the weight [6, 12] was 22 g and 20 g and the weight [6, 14] was 19 g and 18 g. For the same compound, the weight [6, 16] was 22 g and 20 g, the weight [6, 18] was 19 g and 21 g and 20 g and the weight [6, 20] was 20.5 g and 23.5 g and 19 g. For the same compound, the weight [6, 22] was 21 g and 20 g, the weight [6, 24] was 19 g and 18.5 g and 20 g and the weight [6, 26] was 20 g and 21 g. The weight [6, 28] was 20 g and 23 g, the weight [6, 30] was 19 g and 18.5 g and the “health status / death of tested mice during the treatment” value ([6]; both high and low doses) was “without death”. The “weight of mice during the experiment” value [6, 31] was “did not show a significant decrease”, the viability at 10 µM ([7]; HepG2, 72 h, HepG2, average of 4 tests, read-out: survival rate (inhibition effect), Average) was 54.1% and the viability at 10 µM ([7]; HepG2, HepG2, 72 h, run 0524-20 min, read-out: survival rate (inhibition effect)) was 66.4%. It also gave a viability at 10 µM ([7]; HepG2, HepG2, 72 h, run 0526-20 min, read-out: survival rate (inhibition effect)) of 58.3%, a viability at 10 µM ([7]; HepG2, HepG2, 72 h, run 0529-20 min, read-out: survival rate (inhibition effect)) of 50.1% and a viability at 10 µM ([7]; HepG2, HepG2, 72 h, run 0531-20 min, read-out: survival rate (inhibition effect)) of 41.7%. For the same compound, the viability at 10 µM [8] was 44.1%, the viability at 10 µM ([9]; MCF7, 72 h, MCF7, average of 4 tests, read-out: survival rate (inhibition effect), Average) was 51.2% and the viability at 10 µM ([9]; MCF7, MCF7, 72 h, run 0612-10 min, read-out: survival rate (inhibition effect)) was 47.7%. For the same compound, the viability at 10 µM ([9]; MCF7, MCF7, 72 h, run 0614-10 min, read-out: survival rate (inhibition effect)) was 50%, the viability at 10 µM ([9]; MCF7, MCF7, 72 h, run 0616-10 min, read-out: survival rate (inhibition effect)) was 55.4% and the viability at 10 µM ([9]; MCF7, MCF7, 72 h, run 0619-10 min, read-out: survival rate (inhibition effect)) was 51.6%. For the same compound, the viability at 10 µM [10] was 69.1%, the viability at 10 µM ([11]; BXPC-3, 72 h, BxPC-3, average of 4 tests, read-out: survival rate (inhibition effect), Average) was 77.7% and the viability at 10 µM ([11]; BXPC-3, BxPC-3, 72 h, run 3-4-30 min, read-out: survival rate (inhibition effect)) was 87%. The viability at 10 µM ([11]; BXPC-3, BxPC-3, 72 h, run 3-7-3-30 min, read-out: survival rate (inhibition effect)) was 59.7% and the viability at 10 µM ([11]; BXPC-3, BxPC-3, 72 h, run 3-7-4-30 min, read-out: survival rate (inhibition effect)) was 93.7%.
